Source: patent publication US12590062B2, “PD-1/PD-L1 inhibitors” (Gilead Sciences, Inc., priority 2017, dated 2026)

Key:
[1] = biological target: T1, PD-1/PD-L1 interaction (Homo sapiens, UniProt Q9NZQ7); assay: PD-1/PD-L1 NFAT reporter co-culture assay; format: cell-based; details: Jurkat PD-1 NFAT-luciferase cells co-cultured with aAPC-PD-L1 CHO cells, 6 hrs at 37° C.; read-out: EC50 NFAT Luciferase
T1 construct: expressed in transfected cells; host or cells: CHO cells (aAPC-PD-L1) co-cultured with Jurkat cells overexpressing PD-1 and an NFAT-luciferase reporter
T1 sequence (Q9NZQ7 19-290): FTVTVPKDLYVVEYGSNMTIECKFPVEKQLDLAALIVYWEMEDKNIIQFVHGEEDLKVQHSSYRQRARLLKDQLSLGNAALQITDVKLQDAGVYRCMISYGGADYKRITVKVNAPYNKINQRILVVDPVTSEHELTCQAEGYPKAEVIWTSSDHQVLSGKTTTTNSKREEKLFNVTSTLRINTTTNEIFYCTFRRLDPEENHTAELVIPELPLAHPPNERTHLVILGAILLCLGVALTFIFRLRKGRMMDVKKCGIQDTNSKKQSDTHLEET
Outline: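 Jurkat cells overexpressing PD-1 with NFAT-luciferase mixed with compounds and plated onto CHO aAPCs expressing anti-CD3 and PD-L1, RPMI with 2% FBS. Co-culture 6 h at 37 °C; luminescence read with ONE-Glo. EC50 from four-parameter fit.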

[2] = biological target: PD-1/PD-L1 (Homo sapiens, UniProt Q9NZQ7); assay: PD-1/PD-L1 biochemical protein-protein interaction assay (ALPHA); format: binding; details: 0.3 nM His tagged PD-L1, 2.5 nM biotinylated Fc-PD-1, 60 minutes at 25° C., read-out: IC50 PD-L1-PD-1 Alpha IC50-mono PD-L1-fcP-D1
Chain of PD-1/PD-L1 (Q9NZQ7 19-238 limits assumed): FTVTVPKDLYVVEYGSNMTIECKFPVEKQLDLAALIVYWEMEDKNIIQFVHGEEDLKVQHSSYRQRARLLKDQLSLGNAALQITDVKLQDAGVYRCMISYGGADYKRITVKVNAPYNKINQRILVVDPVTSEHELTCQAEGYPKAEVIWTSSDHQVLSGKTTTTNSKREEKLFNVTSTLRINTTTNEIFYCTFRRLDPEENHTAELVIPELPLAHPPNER
Experimental: Biological Activity PD-1/PD-L1 & CTLA/CD80 Biochemical Protein-Protein Interaction Assay
Compounds were tested in biochemical protein-protein interaction assays to determine if they can specifically block the interaction between the extracellular domains of PD-1/PD-L1 or CTLA/CD80. Binding of the protein pairs is measured using a bead based Amplified Luminescent Proximity Homogeneous Assay (ALPHA) platform. Binding of each protein pair results in proximity of the donor and acceptor beads which leads to an increase in ALPHA signal. Disruption of the protein-protein interaction with a test compound results in a decrease in ALPHA signal. Assays are performed in 25 mM Hepes (pH 7.4), 150 mM NaCl, 3.4 mM EDTA, 0.005% Tween 20, and 0.01% BSA. Final protein concentration in the assays were 0.3 nM (His tagged PD-L1), 2.5 nM (biotinylated Fc-PD-1), 1 nM (His tagged CTLA4) and 1 nM (biotinylated CD80). After an assay reaction time of 60 minutes at 25° C., binding was measured with addition of 20 μg/mL ALPHA assay acceptor beads (anti-His coated) and […] ALPHA assay donor beads (streptavidin coated). IC50 values were calculated from the fit of the dose-response curves to a four-parameter equation. Representative data are shown below in Table 1.

SMILES | EC50 [1] [nM] | IC50 [2] [nM]
Cc1c(COc2cc(OCc3cncc(C#N)c3)c(CNCCCO)cc2Cl)cccc1-c1cccc(COc2cc(OCc3cncc(C#N)c3)c(CNCCCO)cc2Cl)c1C [Example 73, 5,5′-((((((2,2′-dimethyl-[1,1′-biphenyl]-3,3′-diyl)bis(methylene))bis(oxy))bis(4-chloro-6-(((3-hydroxypropyl)amino)methyl)-3,1-phenylene))bis(oxy))bis(methylene))dinicotinonitrile] | 2620 | 56.1
COc1nc(OCc2cccc(-c3cccc(COc4ccc(CNCC(O)C(F)(F)C(=O)O)c(OC)n4)c3C)c2C)ccc1CNCC(O)C(F)(F)C(=O)O (stereo not shown) [Example 84, 4,4′-((((((2,2′-dimethyl-[1,1′-biphenyl]-3,3′-diyl)bis(methylene))bis(oxy))bis(2-methoxypyridine-6,3-diyl))bis(methylene))bis(azanediyl))bis(2,2-difluoro-3-hydroxybutanoic acid)] | 10000 | 0.9
COc1nc(OCc2cccc(-c3cccc(COc4nc(OC)c(CNC[C@@H](O)CC(=O)O)cc4C)c3C)c2C)c(C)cc1CNC[C@@H](O)CC(=O)O [Example 119, (3S,3′S)-4,4′-((((((2,2′-dimethyl-[1,1′-biphenyl]-3,3′-diyl)bis(methylene))bis(oxy))bis(2-methoxy-5-methylpyridine-6,3-diyl))bis(methylene))bis(azanediyl))bis(3-hydroxybutanoic acid)] | 863 | 0.8
C=Cc1cc(CNC[C@@H](O)CC(=O)O)c(OC)nc1OCc1cccc(-c2cccc(COc3nc(OC)c(CNC[C@@H](O)CC(=O)O)cc3C=C)c2C)c1C [Example 120, (3S,3′S)-4,4′-((((((2,2′-dimethyl-[1,1′-biphenyl]-3,3′-diyl)bis(methylene))bis(oxy))bis(2-methoxy-5-vinylpyridine-6,3-diyl))bis(methylene))bis(azanediyl))bis(3-hydroxybutanoic acid)] | 1300 | 2
Cc1c(COc2nc(OCc3cncs3)c(CNC[C@@H](O)CC(=O)O)cc2Br)cccc1-c1cccc(COc2nc(OCc3cncs3)c(CNC[C@@H](O)CC(=O)O)cc2Br)c1C [Example 138, (3S,3′S)-4,4′-((((((2,2′-dimethyl-[1,1′-biphenyl]-3,3′-diyl)bis(methylene))bis(oxy))bis(5-bromo-2-(thiazol-5-ylmethoxy)pyridine-6,3-diyl))bis(methylene))bis(azanediyl))bis(3-hydroxybutanoic acid)] | 392 | 1
Cc1c(COc2nc(OCc3cnnn3Cc3ccccc3)c(CNC[C@@H](O)CC(=O)O)cc2Br)cccc1-c1cccc(COc2nc(OCc3cnnn3Cc3ccccc3)c(CNC[C@@H](O)CC(=O)O)cc2Br)c1C [Example 139, (3S,3′S)-4,4′-((((((2,2′-dimethyl-[1,1′-biphenyl]-3,3′-diyl)bis(methylene))bis(oxy))bis(2-((1-benzyl-1H-1,2,3-triazol-5-yl)methoxy)-5-bromopyridine-6,3-diyl))bis(methylene))bis(azanediyl))bis(3-hydroxybutanoic acid)] | 23900 | 5.1
Cc1c(COc2nc(OCC3CC3)c(CNC[C@@H](O)CC(=O)O)cc2Br)cccc1-c1cccc(COc2nc(OCC3CC3)c(CNC[C@@H](O)CC(=O)O)cc2Br)c1C [Example 141, (3S,3′S)-4,4′-((((((2,2′-dimethyl-[1,1′-biphenyl]-3,3′-diyl)bis(methylene))bis(oxy))bis(5-bromo-2-(cyclopropylmethoxy)pyridine-6,3-diyl))bis(methylene))bis(azanediyl))bis(3-hydroxybutanoic acid)] | ≥ 50000 | 3.6
COC(=O)COc1nc(OCc2cccc(-c3cccc(COc4nc(OCC(=O)OC)c(CNC[C@@H](O)CC(=O)O)cc4Br)c3C)c2C)c(Br)cc1CNC[C@@H](O)CC(=O)O [Example 150, (3S,3′S)-4,4′-((((((2,2′-dimethyl-[1,1′-biphenyl]-3,3′-diyl)bis(methylene))bis(oxy))bis(5-bromo-2-(2-methoxy-2-oxoethoxy)pyridine-6,3-diyl))bis(methylene))bis(azanediyl))bis(3-hydroxybutanoic acid)] | ≥ 50000 | 0.5
C=CCOc1nc(OCc2cccc(-c3cccc(COc4nc(OCC=C)c(CNC[C@@H](O)CC(=O)O)cc4Br)c3C)c2C)c(Br)cc1CNC[C@@H](O)CC(=O)O [Example 151, (3S,3′S)-4,4′-((((((2,2′-dimethyl-[1,1′-biphenyl]-3,3′-diyl)bis(methylene))bis(oxy))bis(2-(allyloxy)-5-bromopyridine-6,3-diyl))bis(methylene))bis(azanediyl))bis(3-hydroxybutanoic acid)] | ≥ 50000 | 2.2
Cc1c(COc2nc(OCC(F)(F)F)c(CNC[C@@H](O)CC(=O)O)cc2Br)cccc1-c1cccc(COc2nc(OCC(F)(F)F)c(CNC[C@@H](O)CC(=O)O)cc2Br)c1C [Example 154, (3S,3′S)-4,4′-((((((2,2′-dimethyl-[1,1′-biphenyl]-3,3′-diyl)bis(methylene))bis(oxy))bis(5-bromo-2-(2,2,2-trifluoroethoxy)pyridine-6,3-diyl))bis(methylene))bis(azanediyl))bis(3-hydroxybutanoic acid)] | ≥ 50000 | 3.8
Cc1nc(OCc2cccc(-c3cccc(COc4ccc(CNC[C@@H](O)CC(=O)O)c(C)n4)c3C)c2C)ccc1CNC[C@@H](O)CC(=O)O [Example 156, (3S,3′S)-4,4′-((((((2,2′-dimethyl-[1,1′-biphenyl]-3,3′-diyl)bis(methylene))bis(oxy))bis(2-methylpyridine-6,3-diyl))bis(methylene))bis(azanediyl))bis(3-hydroxybutanoic acid)] | 34200 | 2.3
Cc1c(COc2ccc(CNC[C@@H](O)CC(=O)O)c(OCCN3CCOCC3)n2)cccc1-c1cccc(COc2ccc(CNC[C@@H](O)CC(=O)O)c(OCCN3CCOCC3)n2)c1C [Example 158, (3S,3′S)-4,4′-((((((2,2′-dimethyl-[1,1′-biphenyl]-3,3′-diyl)bis(methylene))bis(oxy))bis(2-(2-morpholinoethoxy)pyridine-6,3-diyl))bis(methylene))bis(azanediyl))bis(3-hydroxybutanoic acid)] | 28100 | 2
Cc1c(COc2cc(OCc3cncc(C#N)c3)c(CNC[C@@H](O)C(=O)O)cc2Cl)cccc1-c1cccc(COc2cc(OCc3cncc(C#N)c3)c(CNC[C@@H](O)C(=O)O)cc2Cl)c1C [Example 161, (2R,2′R)-3,3′-((((((2,2′-dimethyl-[1,1′-biphenyl]-3,3′-diyl)bis(methylene))bis(oxy))bis(5-chloro-2-((5-cyanopyridin-3-yl)methoxy)-4,1-phenylene))bis(methylene))bis(azanediyl))bis(2-hydroxypropanoic acid)] | 310 | 2.8
Cc1c(COc2cc(OCc3cncc(C#N)c3)c(CNCc3nnn[nH]3)cc2Cl)cccc1-c1cccc(COc2cc(OCc3cncc(C#N)c3)c(CNCc3nnn[nH]3)cc2Cl)c1C [Example 163, 5,5′-((((((2,2′-dimethyl-[1,1′-biphenyl]-3,3′-diyl)bis(methylene))bis(oxy))bis(6-((((1H-tetrazol-5-yl)methyl)amino)methyl)-4-chloro-3,1-phenylene))bis(oxy))bis(methylene))dinicotinonitrile] | 343 | 0.6
Cc1c(COc2cc(OCc3cncc(C#N)c3)c(CNCCCC(=O)O)cc2Cl)cccc1-c1cccc(COc2cc(OCc3cncc(C#N)c3)c(CNCCCC(=O)O)cc2Cl)c1C [Example 164, 4,4′-((((((2,2′-dimethyl-[1,1′-biphenyl]-3,3′-diyl)bis(methylene))bis(oxy))bis(5-chloro-2-((5-cyanopyridin-3-yl)methoxy)-4,1-phenylene))bis(methylene))bis(azanediyl))dibutyric acid] | 500 | 0.2
Cc1c(COc2ccc(CNC[C@@H](O)CC(=O)O)cc2C#N)cccc1-c1cccc(COc2ccc(CNC[C@@H](O)CC(=O)O)cc2C#N)c1C [Example 177, (3S,3′S)-4,4′-((((((2,2′-dimethyl-[1,1′-biphenyl]-3,3′-diyl)bis(methylene))bis(oxy))bis(3-cyano-4,1-phenylene))bis(methylene))bis(azanediyl))bis(3-hydroxybutanoic acid)] | 20600 | 0.1
COc1cc(C(=O)N2CCc3c(-c4cccc5c4CCN5C(=O)c4ccc(CNC[C@@H](O)CC(=O)O)c(OC)c4)cccc32)ccc1CNC[C@@H](O)CC(=O)O [Example 180, (3S,3′S)-4,4′-(((([4,4′-biindoline]-1,1′-dicarbonyl)bis(2-methoxy-4,1-phenylene))bis(methylene))bis(azanediyl))bis(3-hydroxybutanoic acid)] | 24800 | 4.6
